Experimental findings from ChEMBL document CHEMBL1201862, “PubChem BioAssay data set” (2004) are described below.

Active and inactive are the calls of the source.

Common to all, as to assay type: functional
Experiment [1] concerns the target Casein kinase II subunit alpha (Homo sapiens, UniProt P68400).
For experiment [2], the target named is Receptor tyrosine-protein kinase erbB-4 (Homo sapiens, UniProt Q15303).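 Also: ERBB4 member of a kinome-wide kinase profiling panel.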
Experiment [3] has as its target Non-receptor tyrosine-protein kinase TYK2 (Homo sapiens, UniProt P29597).
Experiment [4] deals with T1, Mitogen-activated protein kinase kinase kinase kinase 2 (Homo sapiens, UniProt Q12851).
T1 sequence (Q12851 whole entry): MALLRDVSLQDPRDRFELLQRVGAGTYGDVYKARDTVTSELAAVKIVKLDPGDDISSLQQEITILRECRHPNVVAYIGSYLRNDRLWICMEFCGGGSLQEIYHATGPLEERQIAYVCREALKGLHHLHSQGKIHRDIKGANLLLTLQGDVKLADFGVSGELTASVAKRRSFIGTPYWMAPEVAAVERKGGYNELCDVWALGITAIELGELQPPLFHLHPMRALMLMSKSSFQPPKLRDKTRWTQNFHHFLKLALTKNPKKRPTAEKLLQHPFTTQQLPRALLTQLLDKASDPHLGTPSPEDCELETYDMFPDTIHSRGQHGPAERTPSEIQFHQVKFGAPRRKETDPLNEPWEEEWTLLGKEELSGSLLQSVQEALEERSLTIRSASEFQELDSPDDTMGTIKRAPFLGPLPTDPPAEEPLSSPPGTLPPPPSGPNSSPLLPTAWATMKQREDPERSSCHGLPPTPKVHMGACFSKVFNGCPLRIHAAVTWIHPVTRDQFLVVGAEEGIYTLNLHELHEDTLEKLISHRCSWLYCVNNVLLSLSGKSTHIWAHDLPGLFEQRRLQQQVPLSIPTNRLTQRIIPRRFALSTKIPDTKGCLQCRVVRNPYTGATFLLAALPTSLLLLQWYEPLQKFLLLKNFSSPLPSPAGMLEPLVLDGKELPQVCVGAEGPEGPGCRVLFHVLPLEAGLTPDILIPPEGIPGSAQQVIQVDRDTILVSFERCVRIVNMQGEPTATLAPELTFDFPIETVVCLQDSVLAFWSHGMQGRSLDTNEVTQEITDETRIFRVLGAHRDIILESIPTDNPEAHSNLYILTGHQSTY

For experiment [5], the target named is Tyrosine-protein kinase Fer (Homo sapiens, UniProt P16591).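 Also: FER tested as one member of a kinome panel.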
In experiment [6] the target is T2, 3-phosphoinositide-dependent protein kinase 1 (Homo sapiens, UniProt O15530).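 Also: value comes from the Navigating the Kinome panel, PDPK1 member.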
T2 sequence (O15530 whole entry): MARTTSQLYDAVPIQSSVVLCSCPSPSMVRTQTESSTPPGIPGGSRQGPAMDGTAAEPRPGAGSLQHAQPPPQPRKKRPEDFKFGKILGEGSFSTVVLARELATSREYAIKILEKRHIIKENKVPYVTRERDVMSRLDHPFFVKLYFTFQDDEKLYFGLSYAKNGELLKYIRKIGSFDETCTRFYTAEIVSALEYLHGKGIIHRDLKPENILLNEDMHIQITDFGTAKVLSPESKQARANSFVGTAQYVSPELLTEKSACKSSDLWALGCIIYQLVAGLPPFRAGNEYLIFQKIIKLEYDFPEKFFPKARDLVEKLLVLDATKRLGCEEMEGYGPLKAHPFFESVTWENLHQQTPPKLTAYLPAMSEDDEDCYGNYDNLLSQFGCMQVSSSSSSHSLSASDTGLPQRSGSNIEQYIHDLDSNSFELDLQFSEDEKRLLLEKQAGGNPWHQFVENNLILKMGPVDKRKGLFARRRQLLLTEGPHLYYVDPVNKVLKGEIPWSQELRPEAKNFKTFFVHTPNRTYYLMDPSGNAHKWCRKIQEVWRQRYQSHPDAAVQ

A further experiment addresses Aurora kinase B (Homo sapiens, UniProt Q96GD4).
Experiment [7] has as its target Calcium/calmodulin-dependent protein kinase type 1 (Homo sapiens, UniProt Q14012).
Experiment [8] addresses RAC-gamma serine/threonine-protein kinase (Homo sapiens, UniProt Q9Y243).
Experiment [9] addresses Mitogen-activated protein kinase 9 (Homo sapiens, UniProt P45984).
The target in experiment [10] is T3, Serine/threonine-protein kinase 17A (Homo sapiens, UniProt Q9UEE5).
T3 sequence (Q9UEE5 whole entry): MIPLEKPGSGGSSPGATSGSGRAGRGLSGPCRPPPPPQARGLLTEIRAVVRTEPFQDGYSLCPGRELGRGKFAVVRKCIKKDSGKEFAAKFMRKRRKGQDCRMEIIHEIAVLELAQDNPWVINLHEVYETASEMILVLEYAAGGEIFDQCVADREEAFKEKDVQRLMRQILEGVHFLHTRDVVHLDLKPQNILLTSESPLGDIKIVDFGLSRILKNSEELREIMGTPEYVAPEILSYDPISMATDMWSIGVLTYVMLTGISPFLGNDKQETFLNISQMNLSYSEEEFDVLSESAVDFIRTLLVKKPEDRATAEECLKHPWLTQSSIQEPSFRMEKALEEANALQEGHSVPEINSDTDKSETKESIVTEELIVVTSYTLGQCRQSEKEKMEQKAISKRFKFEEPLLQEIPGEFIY

Experiment [11] addresses Mitogen-activated protein kinase 8 (Homo sapiens, UniProt P45983).
The target of experiment [12] is Casein kinase I isoform delta (Homo sapiens, UniProt P48730).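 Also: measured as one member (CSNK1D) of a kinome panel.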
The target of experiment [13] is Tyrosine-protein kinase FRK (Homo sapiens, UniProt P42685).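 Also: FRK tested as one member of a kinome panel.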
The target in experiment [14] is Macrophage colony-stimulating factor 1 receptor (Homo sapiens, UniProt P07333).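 Also: value comes from the Navigating the Kinome screening panel, CSF1R member.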
Experiment [15] concerns the target Phosphorylase b kinase gamma catalytic chain, liver/testis isoform (Homo sapiens, UniProt P15735).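 Also: PHKG2 measured as one member of a kinome-wide kinase panel.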
The target in experiment [16] is Serine/threonine-protein kinase N2 (Homo sapiens, UniProt Q16513).
The target in experiment [17] is Dual specificity tyrosine-phosphorylation-regulated kinase 1A (Homo sapiens, UniProt Q13627).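 Also: measured against DYRK1A as one member of a broad kinome profiling panel.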
For experiment [18], the target named is Receptor tyrosine-protein kinase erbB-2 (Homo sapiens, UniProt P04626). The experiment is described as follows: Navigating the Kinome. Panel member name: ERBB2.
The target in experiment [19] is Serine/threonine-protein kinase D3 (Homo sapiens, UniProt O94806).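 Also: determined within a kinase panel screen, with PRKCN as the panel member.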

RAC-gamma serine/threonine-protein kinase, sequence (Q9Y243 whole entry): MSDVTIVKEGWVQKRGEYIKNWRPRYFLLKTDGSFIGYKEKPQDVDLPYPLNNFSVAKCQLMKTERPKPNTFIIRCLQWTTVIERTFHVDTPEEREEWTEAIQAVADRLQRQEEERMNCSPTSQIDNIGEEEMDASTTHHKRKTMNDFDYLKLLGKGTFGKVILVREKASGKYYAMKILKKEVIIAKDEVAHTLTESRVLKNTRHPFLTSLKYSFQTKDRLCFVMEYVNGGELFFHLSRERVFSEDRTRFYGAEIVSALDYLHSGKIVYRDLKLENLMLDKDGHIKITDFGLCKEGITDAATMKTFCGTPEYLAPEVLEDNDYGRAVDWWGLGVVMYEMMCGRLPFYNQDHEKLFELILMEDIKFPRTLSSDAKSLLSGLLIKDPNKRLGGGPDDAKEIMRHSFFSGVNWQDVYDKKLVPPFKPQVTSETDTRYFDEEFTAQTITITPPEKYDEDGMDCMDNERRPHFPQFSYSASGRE
Serine/threonine-protein kinase N2, sequence (Q16513 whole entry): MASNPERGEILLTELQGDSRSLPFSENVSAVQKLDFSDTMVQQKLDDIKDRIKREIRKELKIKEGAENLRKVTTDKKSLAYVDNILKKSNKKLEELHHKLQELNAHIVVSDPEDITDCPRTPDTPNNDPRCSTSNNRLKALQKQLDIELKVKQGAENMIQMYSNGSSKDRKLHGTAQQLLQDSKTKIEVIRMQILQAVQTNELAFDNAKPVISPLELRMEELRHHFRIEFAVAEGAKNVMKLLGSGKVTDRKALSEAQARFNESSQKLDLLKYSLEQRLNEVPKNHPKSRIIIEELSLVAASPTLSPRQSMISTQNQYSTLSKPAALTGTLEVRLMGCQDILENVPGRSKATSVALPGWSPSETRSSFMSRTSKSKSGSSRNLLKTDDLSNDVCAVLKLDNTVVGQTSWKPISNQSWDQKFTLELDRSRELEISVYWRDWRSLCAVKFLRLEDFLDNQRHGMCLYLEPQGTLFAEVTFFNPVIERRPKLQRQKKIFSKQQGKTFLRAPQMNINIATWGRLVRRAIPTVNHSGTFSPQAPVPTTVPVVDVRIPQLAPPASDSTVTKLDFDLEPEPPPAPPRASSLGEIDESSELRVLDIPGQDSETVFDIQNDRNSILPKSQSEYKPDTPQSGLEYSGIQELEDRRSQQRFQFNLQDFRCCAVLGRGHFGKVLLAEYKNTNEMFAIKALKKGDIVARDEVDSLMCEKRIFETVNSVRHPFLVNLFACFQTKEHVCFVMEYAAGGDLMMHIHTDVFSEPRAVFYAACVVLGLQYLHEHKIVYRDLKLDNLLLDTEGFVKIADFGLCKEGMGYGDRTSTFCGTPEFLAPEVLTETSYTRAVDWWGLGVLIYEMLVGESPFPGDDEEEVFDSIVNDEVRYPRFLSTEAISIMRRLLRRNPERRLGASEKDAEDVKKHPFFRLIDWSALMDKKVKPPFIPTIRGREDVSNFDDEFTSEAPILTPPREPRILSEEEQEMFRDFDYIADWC
Casein kinase I isoform delta, sequence (P48730 whole entry, canonical isoform): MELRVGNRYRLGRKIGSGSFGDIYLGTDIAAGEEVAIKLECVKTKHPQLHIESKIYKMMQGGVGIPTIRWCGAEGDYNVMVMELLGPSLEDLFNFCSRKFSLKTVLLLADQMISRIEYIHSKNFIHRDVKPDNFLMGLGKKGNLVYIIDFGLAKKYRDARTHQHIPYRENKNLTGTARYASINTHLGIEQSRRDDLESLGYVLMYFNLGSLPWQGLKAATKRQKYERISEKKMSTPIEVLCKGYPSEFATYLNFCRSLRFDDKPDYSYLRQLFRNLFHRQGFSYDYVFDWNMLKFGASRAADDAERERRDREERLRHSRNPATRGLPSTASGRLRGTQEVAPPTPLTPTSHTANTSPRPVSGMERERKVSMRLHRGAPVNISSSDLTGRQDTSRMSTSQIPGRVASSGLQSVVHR
Mitogen-activated protein kinase 9, sequence (P45984 whole entry): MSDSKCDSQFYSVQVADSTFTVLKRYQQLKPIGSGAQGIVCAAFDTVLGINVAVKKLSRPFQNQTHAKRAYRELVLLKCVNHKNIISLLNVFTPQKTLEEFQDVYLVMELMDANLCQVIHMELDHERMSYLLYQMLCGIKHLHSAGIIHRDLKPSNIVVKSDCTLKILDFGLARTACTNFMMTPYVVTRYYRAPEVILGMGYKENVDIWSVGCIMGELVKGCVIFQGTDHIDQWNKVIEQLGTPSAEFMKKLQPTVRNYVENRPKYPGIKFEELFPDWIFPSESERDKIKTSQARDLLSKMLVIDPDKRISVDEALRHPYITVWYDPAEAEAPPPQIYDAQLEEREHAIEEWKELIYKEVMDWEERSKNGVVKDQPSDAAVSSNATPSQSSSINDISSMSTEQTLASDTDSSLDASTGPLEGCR
Casein kinase II subunit alpha, sequence (P68400 whole entry): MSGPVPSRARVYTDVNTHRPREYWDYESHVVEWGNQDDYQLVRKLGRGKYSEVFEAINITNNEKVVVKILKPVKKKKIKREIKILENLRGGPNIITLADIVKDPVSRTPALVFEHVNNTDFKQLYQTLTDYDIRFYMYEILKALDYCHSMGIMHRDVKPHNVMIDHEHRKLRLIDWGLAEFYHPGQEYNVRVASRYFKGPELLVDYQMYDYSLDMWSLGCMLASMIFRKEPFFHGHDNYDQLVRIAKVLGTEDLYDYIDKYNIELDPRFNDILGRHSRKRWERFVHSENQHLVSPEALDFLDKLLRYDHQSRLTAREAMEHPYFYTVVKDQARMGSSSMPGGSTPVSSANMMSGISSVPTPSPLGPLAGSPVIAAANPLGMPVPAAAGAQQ
Aurora kinase B, sequence (Q96GD4 whole entry): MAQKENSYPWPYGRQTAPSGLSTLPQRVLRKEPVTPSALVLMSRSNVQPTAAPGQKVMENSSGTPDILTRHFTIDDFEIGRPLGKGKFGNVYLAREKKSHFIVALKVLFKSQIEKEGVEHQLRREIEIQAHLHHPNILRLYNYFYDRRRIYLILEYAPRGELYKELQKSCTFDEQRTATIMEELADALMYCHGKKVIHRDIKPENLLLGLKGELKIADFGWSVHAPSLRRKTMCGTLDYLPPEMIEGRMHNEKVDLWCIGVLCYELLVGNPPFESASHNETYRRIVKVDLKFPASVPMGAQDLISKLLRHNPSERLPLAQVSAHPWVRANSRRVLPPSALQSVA
Mitogen-activated protein kinase 8, sequence (P45983 whole entry, canonical isoform): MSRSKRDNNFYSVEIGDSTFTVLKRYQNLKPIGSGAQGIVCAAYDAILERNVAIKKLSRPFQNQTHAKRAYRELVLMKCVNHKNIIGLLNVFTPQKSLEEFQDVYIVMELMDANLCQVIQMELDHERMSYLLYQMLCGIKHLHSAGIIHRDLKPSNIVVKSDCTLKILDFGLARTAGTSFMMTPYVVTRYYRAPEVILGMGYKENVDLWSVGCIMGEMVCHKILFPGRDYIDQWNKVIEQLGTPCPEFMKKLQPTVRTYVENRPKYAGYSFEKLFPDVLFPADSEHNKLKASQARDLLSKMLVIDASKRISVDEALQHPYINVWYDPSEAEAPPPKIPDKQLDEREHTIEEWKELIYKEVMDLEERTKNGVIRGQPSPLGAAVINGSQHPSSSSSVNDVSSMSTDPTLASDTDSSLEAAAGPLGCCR
Non-receptor tyrosine-protein kinase TYK2, sequence (P29597 whole entry): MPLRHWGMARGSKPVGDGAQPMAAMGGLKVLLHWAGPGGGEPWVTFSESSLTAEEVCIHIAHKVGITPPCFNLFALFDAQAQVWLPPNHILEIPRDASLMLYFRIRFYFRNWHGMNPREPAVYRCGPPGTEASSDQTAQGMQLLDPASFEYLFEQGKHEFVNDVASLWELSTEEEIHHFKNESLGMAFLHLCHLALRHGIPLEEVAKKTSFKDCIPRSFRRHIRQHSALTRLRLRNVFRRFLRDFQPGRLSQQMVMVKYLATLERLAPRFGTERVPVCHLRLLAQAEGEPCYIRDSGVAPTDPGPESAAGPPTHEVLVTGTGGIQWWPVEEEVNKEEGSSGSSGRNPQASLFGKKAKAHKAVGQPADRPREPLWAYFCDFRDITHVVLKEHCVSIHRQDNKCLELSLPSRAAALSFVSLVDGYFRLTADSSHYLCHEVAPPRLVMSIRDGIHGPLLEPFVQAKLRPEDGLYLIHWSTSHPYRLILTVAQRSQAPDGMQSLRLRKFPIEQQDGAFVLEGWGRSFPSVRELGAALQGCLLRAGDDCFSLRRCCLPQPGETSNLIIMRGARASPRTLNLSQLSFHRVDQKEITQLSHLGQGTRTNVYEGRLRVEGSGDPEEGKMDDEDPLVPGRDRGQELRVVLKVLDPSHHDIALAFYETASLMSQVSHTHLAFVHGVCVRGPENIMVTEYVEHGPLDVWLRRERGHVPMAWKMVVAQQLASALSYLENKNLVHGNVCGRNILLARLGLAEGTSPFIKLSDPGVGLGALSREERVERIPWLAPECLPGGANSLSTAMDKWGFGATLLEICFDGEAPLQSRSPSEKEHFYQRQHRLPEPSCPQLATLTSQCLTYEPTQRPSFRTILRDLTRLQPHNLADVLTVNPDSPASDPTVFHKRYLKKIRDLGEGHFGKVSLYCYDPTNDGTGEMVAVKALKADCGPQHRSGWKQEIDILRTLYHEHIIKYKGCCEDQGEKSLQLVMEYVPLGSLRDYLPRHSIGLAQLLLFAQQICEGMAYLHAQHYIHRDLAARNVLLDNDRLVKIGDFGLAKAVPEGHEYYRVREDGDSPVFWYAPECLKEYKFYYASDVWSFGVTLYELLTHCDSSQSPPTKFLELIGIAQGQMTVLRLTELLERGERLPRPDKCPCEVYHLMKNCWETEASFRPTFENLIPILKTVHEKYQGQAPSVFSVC
Calcium/calmodulin-dependent protein kinase type 1, sequence (Q14012 whole entry): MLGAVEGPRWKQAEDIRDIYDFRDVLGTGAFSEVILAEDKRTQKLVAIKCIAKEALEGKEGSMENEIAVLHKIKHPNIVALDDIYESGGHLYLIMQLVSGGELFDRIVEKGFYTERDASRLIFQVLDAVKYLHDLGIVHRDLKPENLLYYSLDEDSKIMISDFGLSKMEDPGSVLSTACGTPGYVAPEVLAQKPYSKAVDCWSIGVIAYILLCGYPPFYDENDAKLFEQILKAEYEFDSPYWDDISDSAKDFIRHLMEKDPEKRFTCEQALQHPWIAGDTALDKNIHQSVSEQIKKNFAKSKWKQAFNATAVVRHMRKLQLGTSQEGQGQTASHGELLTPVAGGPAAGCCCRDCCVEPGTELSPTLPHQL

For the compound `NC(=O)c1cc(-c2ccnc(N)n2)[nH]c1-c1ccc(Cl)cc1Cl`, the Ki was 0.2 µM (active) in experiment [1]; > 3.98 µM (inactive) in [2]; 0.794 µM (active) in experiment [3]; 0.2 µM (active) in [4]; > 1.58 µM (inactive) in experiment [5]; > 3.98 µM (inactive) in experiment [6]. For the same compound, the Ki at Aurora kinase B was 0.631 µM (active); in [7], > 3.98 µM (inactive); in experiment [8], 6.31 µM (active); in experiment [9], 0.501 µM (active); in experiment [10], 0.0251 µM (active); in experiment [11], 0.398 µM (active). Also, the Ki in experiment [12] is 0.0158 µM (active); in experiment [13], 2 µM (active); in [14], > 2.51 µM (inactive); in [15], > 5.01 µM (inactive); in [16] it was 0.02 µM (active); in experiment [17] it was 0.000794 µM (active). Further, the Ki in [18] is > 1.58 µM (inactive). Besides, the pKi was 6.7 in experiment [1]; 6.7 in [4]; 6.2 at Aurora kinase B; 5.2 in experiment [8]; 6.3 in [9]; 7.6 in [10]. In addition, the pKi in experiment [11] came to 6.4; in experiment [12], 7.8; in experiment [13], 5.7; in experiment [16], 7.7; in [17] it was 9.1.

Regarding `Cc1ccc(-n2nc(C(C)(C)C)cc2NC(=O)Nc2ccc(OCCN3CCOCC3)c3ccccc23)cc1` [DORAMAPIMOD], the Ki was > 2 µM (inactive) in [3]; > 2.51 µM (inactive) in experiment [4]; > 3.98 µM (inactive) in [19]; > 3.98 µM (inactive) in [6]; > 5.01 µM (inactive) at Aurora kinase B; > 7.94 µM (inactive) in [7]. The values for the Ki in experiment [12] and in experiment [17] were > 7.94 µM (inactive) and > 2 µM (inactive), respectively.

With `NC(COc1cncc(-c2ccc3c(c2)C(=Cc2ccco2)C(=O)N3)c1)Cc1c[nH]c2ccccc12` (stereo not drawn), the Ki in [1] is > 6.31 µM (inactive); in experiment [2], > 3.98 µM (inactive); in [3] it was > 2 µM (inactive); in experiment [4], 0.0398 µM (active); in experiment [5], 0.398 µM (active); in experiment [19], 0.00631 µM (active). Besides, the Ki in [6] was 0.0501 µM (active); on Aurora kinase B it was 0.2 µM (active); in [7], 1.26 µM (active); in experiment [8] it was 0.00501 µM (active); in [9] it was 0.398 µM (active); in [10], 0.0158 µM (active). In addition, the Ki in [11] was 0.316 µM (active); in [12] it was 0.398 µM (active); in [13], 0.316 µM (active); in [14] it was > 2.51 µM (inactive); in [15], 0.0126 µM (active); in [16], 0.00501 µM (active). For the same compound, the Ki in experiment [17] was 0.00251 µM (active); in [18], 1 µM (active).

For orientation: Ki means the dissociation constant of the complex between target and ligand, obtained from inhibition or displacement. Usually pKi stands for −log10 of the Ki, conventionally taken in molar units. High values mean a low Ki, low ones a high Ki.
